Each block holds one compound with its values, some of them ahead of it.
How the values were obtained:
Assay in all cases: Competitive isoTOP-ABPP, cell lysates
Type in all cases: binding
ERCC3 C342 (P19447) = target: T1, ERCC3 C342 (P19447) (Homo sapiens, UniProt P19447); conditions: for R value (DMSO/fragment): 250 μM, in vitro
T1 sequence (P19447 1-782): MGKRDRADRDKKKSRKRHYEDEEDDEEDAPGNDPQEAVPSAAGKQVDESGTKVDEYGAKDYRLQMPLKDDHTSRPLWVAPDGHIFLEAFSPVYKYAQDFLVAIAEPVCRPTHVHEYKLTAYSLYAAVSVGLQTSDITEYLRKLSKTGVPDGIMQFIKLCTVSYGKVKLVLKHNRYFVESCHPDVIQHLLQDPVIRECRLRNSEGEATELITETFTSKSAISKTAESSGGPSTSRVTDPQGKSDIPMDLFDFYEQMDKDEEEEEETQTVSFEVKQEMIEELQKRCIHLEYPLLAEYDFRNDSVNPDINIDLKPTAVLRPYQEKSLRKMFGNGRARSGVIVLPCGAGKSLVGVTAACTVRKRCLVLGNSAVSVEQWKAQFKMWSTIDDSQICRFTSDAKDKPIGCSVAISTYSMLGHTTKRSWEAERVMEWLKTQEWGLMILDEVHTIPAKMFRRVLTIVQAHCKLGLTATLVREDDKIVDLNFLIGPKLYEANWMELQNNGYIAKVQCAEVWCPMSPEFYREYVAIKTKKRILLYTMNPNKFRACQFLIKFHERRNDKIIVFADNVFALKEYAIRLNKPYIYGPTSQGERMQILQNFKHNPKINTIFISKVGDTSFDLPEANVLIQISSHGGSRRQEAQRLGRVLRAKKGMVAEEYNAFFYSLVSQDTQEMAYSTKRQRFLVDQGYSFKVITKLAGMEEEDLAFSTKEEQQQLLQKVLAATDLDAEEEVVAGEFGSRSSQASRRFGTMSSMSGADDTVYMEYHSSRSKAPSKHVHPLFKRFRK

ACAT1 C196 (P24752) = target: T2, ACAT1 C196 (P24752) (Homo sapiens, UniProt P24752); conditions: for isoTOP-ABPP ratio, P24752_C196: 500 μM, invitro; for R value (DMSO/fragment): 250 μM, in vitro
T2 sequence (P24752 34-427): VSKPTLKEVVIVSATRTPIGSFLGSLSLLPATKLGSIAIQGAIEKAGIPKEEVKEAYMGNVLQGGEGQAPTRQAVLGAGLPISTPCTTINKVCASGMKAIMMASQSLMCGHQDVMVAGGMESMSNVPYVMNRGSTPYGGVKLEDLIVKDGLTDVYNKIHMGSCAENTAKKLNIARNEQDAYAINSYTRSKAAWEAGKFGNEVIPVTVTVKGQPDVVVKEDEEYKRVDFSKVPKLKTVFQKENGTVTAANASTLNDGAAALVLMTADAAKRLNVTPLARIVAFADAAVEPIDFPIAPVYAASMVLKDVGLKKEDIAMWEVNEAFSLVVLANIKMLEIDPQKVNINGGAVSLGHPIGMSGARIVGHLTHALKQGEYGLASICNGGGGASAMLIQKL

ACAT1 C413 (P24752) = target: T3, ACAT1 C413 (P24752) (Homo sapiens, UniProt P24752); conditions: for isoTOP-ABPP ratio P24752_C413: 500 μM, invitro
T3 sequence (P24752 34-427): T2 sequence (P24752 34-427)

isoTOP-ABPP ratio P19447_C342 (ERCC3 C342 (P19447); 500 μM, invitro, 231): 1.0
isoTOP-ABPP ratio, P24752_C196 (ACAT1 C196 (P24752); 231): 1.6
isoTOP-ABPP ratio, P24752_C196 (ACAT1 C196 (P24752); ramos): 1.7
isoTOP-ABPP ratio P24752_C413 (ACAT1 C413 (P24752); 231): 5.5
isoTOP-ABPP ratio P24752_C413 (ACAT1 C413 (P24752); ramos): 7.3
SMILES: O=C(CCl)NCCc1c[nH]c2ccccc12 [compound 13]

R value (DMSO/fragment) (ERCC3 C342 (P19447); MDA-MB-231): 1.6
R value (DMSO/fragment) (ERCC3 C342 (P19447); Ramos): 1.1
R value (DMSO/fragment) (ACAT1 C196 (P24752); MDA-MB-231): 1.9
R value (DMSO/fragment) (ACAT1 C196 (P24752); Ramos): 0.5
R value (DMSO/fragment) (ACAT1 C413 (P24752); 250 μM, in vitro, MDA-MB-231): 3.3
SMILES: COc1ccc(C2CC(c3cccs3)=NN2C(=O)CCl)cc1 (stereo not drawn) [compound 4]

isoTOP-ABPP ratio (reactivity profile), P19447_C342 (ERCC3 C342 (P19447); 500 μm in-vitro ramos_231): 0.8
isoTOP-ABPP ratio (reactivity profile), P24752_C196 (ACAT1 C196 (P24752); 500 μm in-vitro ramos): 1.0
isoTOP-ABPP ratio (reactivity profile), P24752_C196 (ACAT1 C196 (P24752); 500 μm in-vitro ramos_231): 1.3
isoTOP-ABPP ratio (reactivity profile), P24752_C413 (ACAT1 C413 (P24752); 500 μm in-vitro ramos): 0.7
isoTOP-ABPP ratio (reactivity profile), P24752_C413 (ACAT1 C413 (P24752); 500 μm in-vitro ramos_231): 1.3
SMILES: O=C(CCl)N1CCN(CC(=O)N2CCOCC2)CC1 [compound 29]
